# Values joined by “and” are separate entries in the source; they are usually repeats but may differ in a detail not shown here. Equal values may be shown once. Ends that are not written are not given here.
# Assays:
# [1] = Emission spectrum and fluorescence intensity of NIR dyes; format: physicochemical; settings: excitation at 650 nm
# Procedure: FIG. 1 depicts the emission spectrum for NIR Dyes (ICG, IR-783, and 783-S-Ph-COOH) following excitation at 650 nm (A) and 690 nm (B).
# Fluorescence intensity of the NIR dyes was evaluated as well, following excitation at 650 nm (FIG. 2A).
# P-(GGFLGK-IR783)2.5% = system: T1, P-(GGFLGK-IR783)2.5%
# T1 sequence: GGFLGK
# P-(GGFLGK-IR783)7.5% = system: T2, P-(GGFLGK-IR783)7.5%
# T2 sequence: GGFLGK
# P-(GGFLGK-IR783)5% = system: T3, P-(GGFLGK-IR783)5%
# T3 sequence: GGFLGK
# SW-480 cells [2] = test: Imaging of orthotopically implanted SW-480 colon tumors in nu/nu athymic mice; format: in vivo; settings: for time post injection of accumulation in tumor area: 2 mg i.v., orthotopic SW-480 tumors
# Procedure: Three types of mouse models were employed to test the ability of the probes to detect solid tumors in the GI tract.
# Nu/nu athymic mice were injected orthotopically into the descending colon of female with SW-480 cells. After tumors reached ˜0.5 cm in diameter, mice were injected i.v. with 2 mg of IR-783 bearing polymeric probe. The results in the orthotopically implanted tumors confirm the accumulation of both P-(GGFLGK (SEQ ID NO: 11)-IR783)2.5% and P-(GGFLGK (SEQ ID NO: 11)-IR783)7.5% polymeric probes in tumor area about 4 h post injection and retention at the tumor site for at least 48 h.
# Biodistribution analysis indicated the presence of the probe in the tumor, kidneys, galbladder and the urine. The T/B ratio following whole body imaging (WBI) was 2.4 in mice treated with P-(GGFLGK (SEQ ID NO: 11)-IR783)7.5%, 4 h post injection (FIG. 6). […] The calculated ratio of the average fluorescence efficiency between colon and tumor tissue was ˜9 (FIG. 7).
# SW-480 cells [3] = test: Imaging of rectally implanted SW-480 tumors in female mice; format: in vivo
# Procedure: The ability of the probe to detect solid tumors in female mice bearing rectally tumors injected with SW-480 cells was tested. The mice were injected with 0.2 mg/200 μl of P-(GGFLGK (SEQ ID NO: 11)-IR783)2.5% and the whole body was imaged 4 and 24 h post injection. […] However images from excised organs taken 24 h post injection indicated a 4-fold increase in the average fluorescence efficiency between colon and tumor tissue (FIG. 8A).
# [4] = Effect of dye loading on fluorescence intensity and quenching of HPMA copolymer-IR783 conjugates; format: physicochemical; settings: dissolved in DDW; Ex: 690 nm, Em: 820 nm
# Procedure: HPMA conjugates of various IR-783-S-Ph-COOH loadings were dissolved in DDW and their fluorescence intensity (Ex: 690 nm, Em: 820 nm). […] These observations confirm the decrease in fluorescence intensity with increasing the loading of IR-783-S-Ph-COOH on p-HPMA copolymer due to the quenching of fluorescent signal.
# The effect of NIR813 loading on p-HPMA-NIR813 quenching efficiency is shown in FIG. 3 and a complete quenching was achieved when the loading level of IR-783 on P—HPMA-IR-783 was 15%.
# Cathepsin B = Cathepsin B (Homo sapiens, UniProt P07858); test: Cathepsin B degradation of the linker (fluorescence activation); format: biochemical; settings: after 22 h of incubation; Cathepsin B 1.5 U, sodium acetate buffer pH 5.5
# Procedure: 0.5 mg polymer was dissolved in 1 ml sodium acetate buffer (pH=5.5). Cathepsin B (1.5 U) was added to the solution and incubate for 24 hours at 370 C. The fluorescence intensity (excitation 650 nm & 690 nm, emission range 820 nm) was measured every 30 minutes.
# The effects of IR-783-S-Ph-COOH loading on CB mediated fluorescence activation was tested.
# HT-29 cells = test: Imaging of rectal HT-29 tumors in female mice; format: in vivo
# Procedure: The ability of the probe to detect solid tumors in female mice bearing rectal tumors introduced via injection with HT-29 cells was also evaluated. After tumors reached ˜0.5 cm in diameter, mice were injected i.v. with 2 mg of IR-783 bearing polymeric probe. Mice were kept in metabolic cages throughout the experiment (48 h). The mice were injected with 1 mg/200 μl of P-(GGFLGK (SEQ ID NO: 11)-IR783)7.5% (CB cleavable linker) and the whole body was imaged 4, 24 and 48 h post injection. […] In images from excised organs taken 24 h post injection indicated only 1.5-fold increase in the average fluorescence efficiency between colon and tumor tissue (T/C) (1.64 and 1.3-fold of increase, FIG. 9b and FIG. 10b, respectively), due to the high background fluorescence along the gastrointestinal tract (stomach, colon and […]), even though treated in metabolic cages. Once the tumor to heart ratio (T/H) was measured, an increased of about 8-10-fold was calculated. When mice were injected with the polymeric probe with non-cleavable linker P-(AP-IR783)7.5%, and the whole body was imaged 4 post injection, the T/B ratio was 1.3.
molecule,measurement,setting,value
"CC1(C)C(/C=C/C=C/C=C/C=C2\N(CCCCS(=O)(=O)O)c3ccc4ccccc4c3C2(C)C)=[N+](CCCCS(=O)(=O)[O-])c2ccc3ccccc3c21 [ICG, indocyanine green]",maximal emission wavelength,[1],810 nm
"CC1(C)C(=CC=C2CCCC(C=CC3=[N+](CCCCS(=O)(=O)O)c4ccccc4C3(C)C)=C2Cl)N(CCCCS(=O)(=O)O)c2ccccc21.[OH-] [IR-783, 2-[2-[2-Chloro-3-[2-[1,3-dihydro-3,3-dimethyl-1-(4-sulfobutyl)-2H-indol-2-ylidene]-ethylidene]-1-cyclohexen-1-yl]-ethenyl]-3,3-dimethyl-1-(4-sulfobutyl)-3H-indolium hydroxide]",maximal emission wavelength,[1],800 nm
CC1(C)C(/C=C/C2=C(Sc3ccc(C(=O)O)cc3)C(=C/C=C3\N(CCCCS(=O)(=O)O)c4ccccc4C3(C)C)/CCC2)=[N+](CCCCS(=O)(=O)[O-])c2ccccc21 [IR-783-S-Ph-COOH],maximal emission wavelength,[1],830 nm
Cathepsin B,increase in signal intensity over time with Cathepsin B,P-(GGFLGK-IR783)2.5%,only 2-fold increase in signal intensity over time
same,increase in the (fluorescence) intensity after 22 h of incubation with Cathepsin B,P-(GGFLGK-IR783)7.5%,4.9-fold
same,increase in the (fluorescence) intensity after 22 h of incubation with Cathepsin B,P-(GGFLGK-IR783)5%,3.6-fold
"P-(GGFLGK-IR783)2.5%: HPMA copolymer bearing IR-783-S-Ph-COOH via degradable GGFLGK linker, 2.5 mol % dye loading (not fully specified (N-terminus); also: IR-783-S-Ph-COOH dye attached, site not given here)",time post injection of accumulation in tumor area,SW-480 cells [2],about 4 h
same,calculated ratio of the average fluorescence efficiency between colon and tumor tissue,"SW-480 cells [2]; ex vivo, 48 h post injection, FIG. 7",~9
same,Biodistribution analysis: accumulation,SW-480 cells [2]; mice sacrificed 48 h post injection,"significant accumulation in the tumor, kidneys and gallbladder"
same,"T/B ratio in whole body imaging, 4 versus 24 h post injection",SW-480 cells [3]; 0.2 mg/200 μl,not significantly different
same,increase in the average fluorescence efficiency between colon and tumor tissue,"SW-480 cells [3]; excised organs 24 h post injection, 0.2 mg/200 μl, FIG. 8A",4 fold
same,fluorescence intensity at λ=820 nm compared with copolymers of other dye loading,[4],highest fluorescence intensity
same,increase in fluorescence intensity following CB degradation,Cathepsin B,2 fold
"P-(GGFLGK-IR783)5%: HPMA copolymer bearing IR-783-S-Ph-COOH via degradable GGFLGK linker, 5% dye loading (not fully specified; also: conjugated to HPMA copolymer via GGFLGK linker)",increase in fluorescence intensity following CB degradation,Cathepsin B,3.6 fold
"P-(GGFLGK-IR783)7.5%: HPMA copolymer bearing IR-783-S-Ph-COOH via degradable (CB cleavable) GGFLGK linker, 7.5% dye loading (not fully specified; also: conjugated to HPMA copolymer via GGFLGK linker)",time post injection of accumulation in tumor area,SW-480 cells [2],about 4 h
same,T/B ratio following whole body imaging (WBI),"SW-480 cells [2]; 4 h post injection, 2 mg, FIG. 6",2.4
same,ratio in the average fluorescence efficiency between colon and tumor tissue,"SW-480 cells [3]; excised tumor harvested 48 h post injection, FIG. 8b",~4
same,tumor accumulation with time,SW-480 cells [3]; whole body imaging,slight increase
same,"T/B ratio in whole body imaging, 4 versus 24 h post injection","HT-29 cells; 1 mg/200 μl, HT-29 rectal model",not significantly different
same,increase in the average fluorescence efficiency between colon and tumor tissue (T/C),"HT-29 cells; excised organs taken 24 h post injection, 1 mg/200 μl",1.5 fold
same,tumor to heart ratio (T/H),"HT-29 cells; excised organs, 1 mg/200 μl",8-10 fold
same,"increase in the average fluorescence efficiency between colon and tumor tissue (T/C), single figures","HT-29 cells; excised organs, FIG. 9b and FIG. 10b, respectively, listed as P-(GGFLGK (SEQ ID NO: 11)-IR783)7.5%",1.64 fold and 1.3 fold
same,increase in fluorescence intensity following CB degradation,Cathepsin B,4.9 fold

# Source: patent US20130142734A1, “TARGETED DELIVERY SYSTEMS FOR DIAGNOSTIC APPLICATIONS” (priority 2010, published 2013)
